pIC50: −log10 of the molar value. *1 amine or outer side, *2 acyl side, *3 side chain or, on linkers, in order; H or OH if unused. Where a SMILES comes first, the peptide text is derived from it. [ ]: non-standard residue; d: D form. The star is where a group is joined. NH(β-GlcNAc) = CC(=O)N[C@@H]1[C@@H](O)[C@H](O)[C@@H](CO)O[C@H]1N*; X1 = CC(C)C[C@H](N[*:1])[C@@H](O)C[C@H](C(=O)[*:2])C(C)C; X2 = OC[C@H]1O[C@@H](N*)[C@@H](O)[C@@H](O)[C@@H]1O; GlcN = OC[C@H]1OC(O)[C@H](N*)[C@@H](O)[C@@H]1O; NMeH = CN[C@@H](Cc1c[nH]cn1)C(=O)O; NHCH2(2-pyridyl) = c1ccc(CN*)nc1; Boc = CC(C)(C)OC(=O)*; CO = O=C([*:1])[*:2]
These compounds were tested against T1, renin (Homo sapiens, UniProt P00797) (assay: renin inhibitory activity (IC50), determined as described in EP 0173481, pages 103-105). Details: renin inhibition; values given in molar units.
T1 sequence (P00797 67-406): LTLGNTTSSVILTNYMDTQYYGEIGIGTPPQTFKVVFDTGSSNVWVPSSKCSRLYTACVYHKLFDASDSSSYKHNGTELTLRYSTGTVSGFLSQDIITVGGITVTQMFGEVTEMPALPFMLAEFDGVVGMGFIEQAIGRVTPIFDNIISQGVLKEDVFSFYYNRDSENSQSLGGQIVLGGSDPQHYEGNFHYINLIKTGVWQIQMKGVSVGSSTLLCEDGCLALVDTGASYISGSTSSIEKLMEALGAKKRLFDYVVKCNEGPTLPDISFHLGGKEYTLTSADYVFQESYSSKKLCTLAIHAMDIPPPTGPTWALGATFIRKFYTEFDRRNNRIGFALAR
Assay type: biochemical
Text: The determination of renin inhibitory activity of the compounds of the present invention (ICso's) are well known to one of ordinary skill in the art, as, for example, described in published European application 0173481, published 5 March 1986, pages 103-105.

Compared with `CC(C)[C@H](C[C@H](O)[C@H](CC1CCCCC1)NC(=O)[C@H](Cc1c[nH]cn1)N(C)C(=O)[C@H](Cc1ccccc1)NC(=O)[C@@H]1CCCN1C(=O)N[C@H]1C(O)O[C@H](CO)[C@@H](O)[C@@H]1O)C(=O)NC[C@H](C)O` (relative stereo) [Example 29, [1 S-[1 R*,2R*,4R*(R*)]]-1-[[(2-Deoxy-D-glucopyranos-2-yl)amino]carbonyl]-L-Prolyl-L-phenylalaryl-N-[1-(cyclohexylmethyl)-2-hydroxy-4-[[(2-hydroxypropyl)-amino]carbonyl]-5-methylhexyl]-Nα-methyl-L-histidinamide], `CC[C@H](C)[C@H](NC(=O)[C@@H](C[C@H](O)[C@H](CC(C)C)NC(=O)[C@H](Cc1c[nH]cn1)N(C)C(=O)[C@H](Cc1ccccc1)NC(=O)[C@@H]1CCCN1C(=O)N[C@H]1C(O)O[C@H](CO)[C@@H](O)[C@@H]1O)C(C)C)C(=O)NCc1ccccn1` (stereo partly drawn) [Example 9, N-(Glucosaminocarbonyl)-Pro-Phe-N(Me)His-LVA-lie-AMP] ({GlcN-CO}-PF[NMeH][X1]I-{NHCH2(2-pyridyl)}) is 0.49 log units higher in pIC50: 8.82 for the first, 9.31 for the second. The second is the more potent here.

Compared with `COC(=O)CC[C@H](NC(=O)[C@@H](C[C@H](O)[C@H](CC1CCCCC1)NC(=O)[C@H](Cc1c[nH]cn1)N(C)C(=O)[C@H](Cc1ccccc1)NC(=O)[C@@H]1CCCN1C(=O)NC(CO)(CO)CO)C(C)C)C(=O)NCc1ccccn1` (relative stereo) [Example 32, [1 S-[1R*,2R*,4R*(R*)]]-1-[[[2-Hydroxy-1,1-bis(hydroxymethyl)ethyl]amino]carbonyl]-L-prolyl-L-phenylalaryl-N-[1-(cyclohexylmethyl)-2-hydroxy-4-[[[4-methoxy-4-oxo-1-[[(2-pyridinylmethyl)amino]carbonyl]-butyl]-amino]carbonyl]-5-methyl-hexyl]-Nα-methyl-L-histidinamide], `CC[C@H](C)[C@H](NC(=O)[C@@H](C[C@H](O)[C@H](CC(C)C)NC(=O)[C@H](Cc1c[nH]cn1)N(C)C(=O)[C@H](Cc1ccccc1)NC(=O)[C@@H]1CCCN1C(=O)[C@H](CC(=O)N[C@@H]1O[C@H](CO)[C@@H](O)[C@H](O)[C@@H]1O)NC(=O)OC(C)(C)C)C(C)C)C(=O)NCc1ccccn1` [Example 38, β-Man-α-N-Boc-Asn-Pro-Phe-N-MeHis-Leu[CH(OH)CH2]-Val-Ile-AMP] (Boc-D(X2)PF[NMeH][X1]I-{NHCH2(2-pyridyl)}) is 0.26 log units lower in pIC50: 9.52 for the first, 9.26 for the second. The first is the more potent here.

`CC[C@H](C)[C@H](NC(=O)[C@@H](C[C@H](O)[C@H](CC(C)C)NC(=O)[C@H](Cc1c[nH]cn1)N(C)C(=O)[C@H](Cc1ccccc1)NC(=O)[C@@H]1CCCN1C(=O)[C@H](CC(=O)N[C@@H]1O[C@H](CO)[C@@H](O)[C@H](O)[C@H]1NC(C)=O)NC(=O)OC(C)(C)C)C(C)C)C(=O)NCc1ccccn1` [Example 36, β-N-AcGLc-α-N-Boc-Asn-Pro-Phe-N-MeHis-Leu[CH(OH)CH2]-Val-Ile-AMP] (Boc-D(NH(β-GlcNAc))PF[NMeH][X1]I-{NHCH2(2-pyridyl)}) gave a pIC50 of 9.39.

Same assay, conditions: renin inhibition; values in nM

`CC(C)C[C@H](O)[C@H](O)[C@H](CC1CCCCC1)NC(=O)[C@H](Cc1c[nH]cn1)N(C)C(=O)[C@H](Cc1ccccc1)NC(=O)[C@@H]1CCCN1C(=O)NC(CO)(CO)CO` (relative stereo) [Example 12, L-Histidinamide, 1-[[[2-hydroxy-1,1-bis(hydroxymethyl)ethyl]amino]carbonyl]-L-prolyl-L-phenylalanyl-N-[1 (cyclohexylmethyl)-2,3-dihydroxy-5-methylhexyl]-Nα-methyl-, [1 S-(1 R*,2S*,3R*)-]-] and `COc1ccc(C[C@H](NC(=O)[C@@H]2CCCN2C(=O)NC(CO)(CO)CO)C(=O)N[C@@H](Cc2c[nH]cn2)C(=O)N[C@@H](CC2CCCCC2)[C@@H](O)[C@@H](O)CC(C)C)cc1` [Example 14, L-Histidinamide, 1-[[[2-hydroxy-1,1-bis(hydroxymethyl)ethyl]amino]carbonyl]-L-prolyl-O-methyl-L-tyrosyl-N-[1-(cyclohexylmethyl)-2,3-dihydroxy-5-methylhexyl]-, [1S-(1R*,2S*,3R*)]-] are within 1.5-fold of each other in IC50: 0.26 nM for the first, 0.21 nM for the second.

`CC(C)C[C@H](O)[C@H](O)[C@H](CC1CCCCC1)NC(=O)[C@H](Cc1c[nH]cn1)N(C)C(=O)[C@H](Cc1ccccc1)NC(=O)[C@@H]1CCCN1C(=O)N[C@H]1C(O)O[C@H](CO)[C@@H](O)[C@@H]1O` (relative stereo) [Example 13, L-Histadinamide, 1-([(2-deoxy-D-glucopyranos-2-yl)amino]carbonyl]-L-prolyl-L-phenylalanyl-N-[1-(cyclohexylmethyl)-2,3-dihydroxy-5-methylhexyl]-N.aIpha.-methyl-, [1 S-(1 R*,2S*,3R(*)]]-] and `COc1ccc(C[C@H](NC(=O)[C@@H]2CCCN2C(=O)N[C@H]2C(O)O[C@H](CO)[C@@H](O)[C@@H]2O)C(=O)N[C@@H](Cc2c[nH]cn2)C(=O)N[C@@H](CC2CCCCC2)[C@@H](O)[C@@H](O)CC(C)C)cc1` (relative stereo) [Example 15] are within 1.5-fold of each other in IC50: 2.4 nM for the first, 2.3 nM for the second.
